According to ChEMBL document CHEMBL1629501, “Regiospecific synthesis and biological evaluation of spirooxindolopyrrolizidines via [3+2] cycloaddition of azomethine ylide” (2010):
Converted amounts (≈) assume the structure as drawn. The source made the active and inactive calls. The calls are words filed in the database; no cut-off is given here.

Legend:
Aspergillus flavus = assay: Antifungal activity against Aspergillus flavus ATCC 485 after 72 to 96 hrs by twofold serial dilution method; format: functional
Bacillus subtilis = assay: Antibacterial activity against Bacillus subtilis ATCC 451 after 24 hrs by twofold serial dilution method; format: functional; details: ATCC 451, 24 h
Staphylococcus aureus = assay: Antibacterial activity against Staphylococcus aureus ATCC 25825 after 24 hrs by twofold serial dilution method; format: functional; details: ATCC 25825, 24 h
Candida albicans = assay: Antifungal activity against Candida albicans ATCC 3122 by twofold serial dilution method; format: functional
Escherichia coli = assay: Antibacterial activity against Escherichia coli ATCC 25835 after 24 hrs by twofold serial dilution method; format: functional; details: ATCC 25835, 24 h
Klebsiella pneumoniae [1] = assay: Antibacterial activity against Klebsiella pneumoniae ATCC 15490 at 200 ug/ml after 24 hrs by twofold serial dilution method; format: functional, organism-based
Aspergillus niger = assay: Antifungal activity against Aspergillus niger ATCC 598 after 72 to 96 hrs by twofold serial dilution method; format: functional
Cryptococcus neoformans = assay: Antifungal activity against Cryptococcus neoformans ATCC 3312 after 72 to 96 hrs by twofold serial dilution method; format: functional
Rhizopus = assay: Antifungal activity against Rhizopus sp. ATCC 2915 after 72 to 96 hrs by twofold serial dilution method; format: functional
Salmonella typhi = assay: Antibacterial activity against Salmonella typhi ATCC 24915 after 24 hrs by twofold serial dilution method; format: functional, Salmonella enterica subsp. enterica serovar Typhi; details: Salmonella enterica, ATCC 24915, 24 h
Klebsiella pneumoniae [2] = assay: Antibacterial activity against Klebsiella pneumoniae ATCC 15490 after 24 hrs by twofold serial dilution method; format: functional; details: ATCC 15490, 24 h

SMILES	MIC (Aspergillus flavus) [µg/mL]	MIC (Bacillus subtilis) [µg/mL]	MIC (Staphylococcus aureus) [µg/mL]	MIC (Candida albicans) [µg/mL]	MIC (Escherichia coli) [µg/mL]	Activity (Klebsiella pneumoniae [1])	MIC (Aspergillus niger) [µg/mL]	MIC (Cryptococcus neoformans) [µg/mL]	MIC (Rhizopus) [µg/mL]	MIC (Salmonella typhi) [µg/mL]	MIC (Klebsiella pneumoniae [2]) [µg/mL]
O=C(c1cccs1)[C@H]1[C@H](c2ccc(F)cc2)C2CCCN2[C@]12C(=O)Nc1ccccc12 (stereo partly drawn)	100 (≈ 231 µM)	25 (≈ 57.8 µM)	6.25 (≈ 14.5 µM)	6.25 (≈ 14.5 µM)	50 (≈ 116 µM)	inactive	200 (≈ 462 µM)	25 (≈ 57.8 µM)	6.25 (≈ 14.5 µM)	6.25 (≈ 14.5 µM)	
CN[C@@H]1[C@H](O[C@H]2[C@H](O[C@H]3[C@H](O)[C@@H](O)[C@H](N=C(N)N)[C@@H](O)[C@@H]3N=C(N)N)O[C@@H](C)[C@]2(O)C=O)O[C@@H](CO)[C@H](O)[C@H]1O [STREPTOMYCIN]		12.5 (≈ 21.5 µM)	50 (≈ 86 µM)		12.5 (≈ 21.5 µM)					50 (≈ 86 µM)	25 (≈ 43 µM)
O=C(c1cccs1)[C@H]1[C@H](c2ccc(Cl)cc2)C2CCCN2[C@]12C(=O)Nc1ccccc12 (stereo partly drawn)	100 (≈ 223 µM)	12.5 (≈ 27.8 µM)	6.25 (≈ 13.9 µM)	25 (≈ 55.7 µM)	25 (≈ 55.7 µM)	inactive	25 (≈ 55.7 µM)	12.5 (≈ 27.8 µM)	6.25 (≈ 13.9 µM)	6.25 (≈ 13.9 µM)	
Cc1ccc([C@@H]2C3CCCN3[C@]3(C(=O)Nc4ccccc43)[C@H]2C(=O)c2cccs2)cc1 (stereo partly drawn)	25 (≈ 58.3 µM)	25 (≈ 58.3 µM)	50 (≈ 117 µM)	100 (≈ 233 µM)	50 (≈ 117 µM)			100 (≈ 233 µM)	100 (≈ 233 µM)	6.25 (≈ 14.6 µM)	100 (≈ 233 µM)
O=C(c1cccs1)[C@H]1[C@H](c2ccccc2)C2CCCN2[C@]12C(=O)Nc1ccccc12 (stereo partly drawn)	200 (≈ 482 µM)	100 (≈ 241 µM)	50 (≈ 121 µM)	100 (≈ 241 µM)	100 (≈ 241 µM)			50 (≈ 121 µM)	200 (≈ 482 µM)	100 (≈ 241 µM)	200 (≈ 482 µM)
O=C(c1cccs1)[C@H]1[C@H](c2cccc(Br)c2)C2CCCN2[C@]12C(=O)Nc1ccccc12 (stereo partly drawn)	200 (≈ 405 µM)	25 (≈ 50.7 µM)	25 (≈ 50.7 µM)	50 (≈ 101 µM)	50 (≈ 101 µM)		100 (≈ 203 µM)	25 (≈ 50.7 µM)	12.5 (≈ 25.3 µM)	100 (≈ 203 µM)	100 (≈ 203 µM)
O=C(c1cccs1)[C@H]1[C@H](c2ccc([N+](=O)[O-])cc2)C2CCCN2[C@]12C(=O)Nc1ccccc12 (stereo partly drawn)	200 (≈ 435 µM)	50 (≈ 109 µM)	100 (≈ 218 µM)	200 (≈ 435 µM)	200 (≈ 435 µM)		100 (≈ 218 µM)	100 (≈ 218 µM)	50 (≈ 109 µM)	100 (≈ 218 µM)	50 (≈ 109 µM)
CN(C)c1ccc([C@@H]2C3CCCN3[C@]3(C(=O)Nc4ccccc43)[C@H]2C(=O)c2cccs2)cc1 (stereo partly drawn)	200 (≈ 437 µM)	50 (≈ 109 µM)	200 (≈ 437 µM)	100 (≈ 219 µM)	100 (≈ 219 µM)		100 (≈ 219 µM)	50 (≈ 109 µM)	50 (≈ 109 µM)	100 (≈ 219 µM)	50 (≈ 109 µM)
COc1ccc([C@@H]2C3CCCN3[C@]3(C(=O)Nc4ccccc43)[C@H]2C(=O)c2cccs2)cc1 (stereo partly drawn)	25 (≈ 56.2 µM)	50 (≈ 112 µM)	6.25 (≈ 14.1 µM)	100 (≈ 225 µM)	100 (≈ 225 µM)		100 (≈ 225 µM)	50 (≈ 112 µM)	50 (≈ 112 µM)	100 (≈ 225 µM)	25 (≈ 56.2 µM)
C[C@@H]1[C@H](O)[C@@H](C)/C=C/C=C/C=C/C=C/C=C/C=C/C=C/[C@H](O[C@@H]2O[C@H](C)[C@@H](O)[C@H](N)[C@@H]2O)C[C@@H]2O[C@](O)(C[C@@H](O)C[C@@H](O)[C@H](O)CC[C@@H](O)C[C@@H](O)CC(=O)O[C@H]1C)C[C@H](O)[C@H]2C(=O)O [AMPHOTERICIN B]	50 (≈ 54.1 µM)			25 (≈ 27.1 µM)			50 (≈ 54.1 µM)	25 (≈ 27.1 µM)	25 (≈ 27.1 µM)		
